Earlier results on 6 compounds are cited in US7456141B2, “Photo resist stripper composition” (Echem Solutions Corp., priority 2004, dated 2008).

Each structure is given as a SMILES string. Where two headings read alike, the source gives them in different places.

For data set [1] the following is noted: Table 3.
For data set [2] the following is noted: Table 3, route and species not given; in mg/kg.
For data set [3] the following is noted: for STEL: Short Time Exposure Limit, 15 minutes; for TWA: Time Weighted Average, eight hours a day and 40 hours a week.
The conditions of data set [4]: for Flash Point / Ignition Point / Vaporizing Speed: Table 2; for Steam Pressure: at 20 ° C. (mmHg/° C. [sic]).
For data set [5], the system named is Rat.
Data set [6] concerns Rat. This is another data set of the same source.
The test system of data set [7] is Rat. This is another data set of the same source.

As for `O=C1CCCCC1` [ANONE, cyclohexanone], in data set [1], the “Flash Point” value is 44 °C, the “Vaporizing Point” value was 4 °C and the Viscosity is listed as 2.2 cst. In addition, the LD50 in [2] is 1535.
As to `CC(=O)OCCC(C)C` [IAAc, Isoamyl acetate], in [1], the “Flash Point” value is 25 °C and the “Vaporizing Point” value was 4 °C. Moreover, the LD50 in data set [2] is given as 16600.
Turning to `CC(=O)CC(C)C` [MIBK, Methyl isobutyl ketone], in data set [3], the STEL is 75 ppm and the TWA is listed as 50 ppm. Moreover, in the data set on Rabbit, the LD50/Hypodermic/Rabbit result was “LD50/Hypodermic/Rabbit: 20 mg/kg”. In data set [4], the “Flash Point” value was 18 °C, the “Ignition Point” value is 449 °C, the “Vaporizing Speed” value is 1.57 and the “Steam Pressure” value is 16/20 mmHg. Besides, in the data set with Mouse, the LC50/Inhale/Mouse entry is on record as “LC50/Inhale/Mouse: 23300 mg/m^3”. Also, the LC50/Inhale/Rat entry in the data set with Rat [5] (exposure time not given) is recorded as “LC50/Inhale/Rat: 4000 ppm”.
Take `COCC(C)O` (centres unmarked) [PGME, propylene glycol mono-methyl ether]: the TWA in data set [3] is 100 ppm. Besides, in data set [4], the “Flash Point” value was 32 °C, the “Vaporizing Speed” value is 0.66 and the “Steam Pressure” value is given as 6.7/20 mmHg. Moreover, in [1], the “Flash Point” value is 32 °C, the “Vaporizing Point” value is 11.8 °C and the Viscosity is given as 1.8 cst. Moreover, the LC50/Inhale/Rat entry in the data set with Rat [5] (7 hrs.) was “LC50/Inhale/Rat: 15000 ppm (7 hrs.)”. The LD50/Oral/Rat result in the data set on Rat [6] is reported as “LD50/Oral/Rat: 6600 mg/kg”. The LD50/Hypodermic/Rat result in the data set on Rat [7] (hypodermic) is reported as “LD50/Hypodermic/Rat: 13000 mg/kg”. For the same compound, the LD50 in data set [2] is 6600.
As for `COCC(C)OC(C)=O` (centres unmarked) [PGMEA, Propylene glycol mono-methyl ether acetate], the TWA in data set [3] was 100 ppm. Further, in [4], the “Flash Point” value was 42 °C, the “Ignition Point” value was 354 °C, the “Vaporizing Speed” value is 0.34 and the “Steam Pressure” value is given as 3.8/20 mmHg. In [1], the “Flash Point” value is 47 °C, the “Vaporizing Point” value is 3.8 °C and the Viscosity is 1.1 cst. For the same compound, in the data set with Rat [5] (6 hrs.), the LC50/Inhale/Rat entry was “LC50/Inhale/Rat: 4345 ppm (6 hrs.)”. The LD50/Oral/Rat entry in the data set on Rat [6] is “LD50/Oral/Rat: 8532 mg/kg”. In addition, the LD50/Hypodermic/Rat result in the data set on Rat [7] (in vivo) is reported as “LD50/Hypodermic/Rat: 5000 mg/kg”. For the same compound, in data set [2], the LD50 is reported as 8532.
On to `CCCCOC(C)=O` [nBAc, n-Butyl Acetate], for which, in [3], the STEL was 200 ppm and the TWA was 150 ppm. Moreover, in data set [4], the “Flash Point” value was 22 °C, the “Ignition Point” value was 425 °C, the “Vaporizing Speed” value is on record as 0.98 and the “Steam Pressure” value is 7.8/20 mmHg. Further, in data set [1], the “Flash Point” value is 22 °C, the “Vaporizing Point” value was 15 °C and the Viscosity is recorded as 0.7 cst. Moreover, the LC50/Inhale/Rat entry in the data set with Rat [5] (4 hrs.) is “LC50/Inhale/Rat: 2000 ppm (4 hrs.)”. For the same compound, the LD50 in data set [2] is reported as 13100.
